In patent US8158621B2, “Methods of treating or preventing autoimmune diseases with 2,4-pyrimidinediamine compounds” (Rigel Pharmaceuticals, Inc., priority 2002, dated 2012):

What follows are molecules tested on Human Jurkat T-cells (clone N) (assay: Jurkat T-cell activation (anti-TCR, CD69 upregulation)). Settings: not given.
Assay type: cell-based
Outline: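 Readout is CD69 upregulation by flow cytometry (anti-CD69-APC, 20 min at 4 °C) after 20 h anti-TCR (C305, 500 ng/ml) stimulation at 37 °C.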

Cc1cc(Nc2nc(Nc3cccc(OCC(=O)N4CCOCC4)c3)ncc2F)cc(Cl)c1O [Compound R940265] and Cc1cc(Nc2nc(Nc3cccc(OCCN4CCOCC4)c3)ncc2F)cc(C)c1O [Compound R940256] are within 1.5-fold of each other in IC50: 5.56 µM for the first, 4.75 µM for the second.

Going from COC(=O)COc1ccc(Nc2cc(Cl)nc(Nc3ccc(OCC(=O)OC)cc3)n2)cc1 [Compound R926411] to COC(=O)COc1ccc(Nc2nc(Nc3ccc(OCC(N)=O)cc3)ncc2F)cc1 [Compound R945060], the IC50 falls from 16.9 µM to 6.08 µM (2.8-fold). The second is the more potent here.

Going from Fc1cnc(Nc2cccc(C(F)(F)F)c2)nc1Nc1ccc2c(c1)OCCO2 [Compound R926805] to CNC(=O)COc1cccc(Nc2ncc(F)c(Nc3ccc4c(c3)OCCO4)n2)c1 [Compound R926816], the IC50 falls from over 10 µM to 0.739 µM.

Compared with CNC(=O)COc1cc(Nc2ncc(F)c(Nc3ccc4c(c3)OCCO4)n2)ccc1OC [Compound R926828], O=C(COc1ccc(Nc2ncc(F)c(Nc3ccc4c(c3)OCCO4)n2)cc1)NCCO [Compound R909239] is 3-fold higher in IC50: 1.01 µM for the first, 3.06 µM for the second. The first is the more potent here.

COC(=O)c1cc2cc(Nc3ncc(F)c(Nc4ccc(OCc5nc(C)no5)cc4)n3)ccc2o1 [Compound R935146] and CN(C)C(=O)c1cc2cc(Nc3ncc(F)c(Nc4cccc(O)c4)n3)ccc2o1 [Compound R926718] cannot be ordered by IC50: over 10 µM for the first, 12.4 µM for the second.

COc1cc(-c2ccccc2)c(C)cc1Nc1ncc(F)c(Nc2cc(C)c(-c3ccccc3)cc2OC)n1 [Compound R926401] and COc1ccc(Nc2ncc(F)c(Nc3ccc(OC)c(-c4ccccc4)c3)n2)cc1-c1ccccc1 [Compound R926399] cannot be ordered by IC50: over 10 µM for the first, over 10 µM for the second.

Going from CCOC(=O)COc1cccc(Nc2ncc(F)c(Nc3ccc(O)c(C(=O)OC)c3)n2)c1 [Compound R950293] to CNC(=O)COc1cccc(Nc2ncc(F)c(Nc3ccc(OC)c(C(=O)OC)c3)n2)c1 [Compound R940300], the IC50 falls from over 10 µM to 9.28 µM. The second is the more potent here.

Compared with COc1ccc([C@@H](C)Nc2ncc(Br)c(N[C@H](C)c3ccc(OC)cc3)n2)cc1 [Compound R935016], CNC(=O)COc1cccc(Nc2ncc(F)c(Nc3ccc(OC(C)C)cc3)n2)c1 [Compound R926730] is 2.9-fold lower in IC50: 5.36 µM for the first, 1.84 µM for the second. The second is the more potent here.

COc1cc(C(=O)NS(=O)(=O)c2ccccc2C)ccc1Cn1ncc2ccc(Nc3ncc(F)c(Nc4cccc(O)c4)n3)cc21 [Compound R935324] and COc1cc(C(=O)NS(=O)(=O)c2ccccc2C)ccc1Cn1ncc2ccc(Nc3ncc(F)c(Nc4ccc5c(c4)OCCO5)n3)cc21 [Compound R935323] cannot be ordered by IC50: over 10 µM for the first, over 10 µM for the second.

First: CNC(=O)CCn1ncc2ccc(Nc3ncc(F)c(Nc4ccc5oc(C(=O)NC)cc5c4)n3)cc21 [Compound R935297]
Second: OCCCn1ncc2ccc(Nc3ncc(F)c(Nc4ccc5oc(CO)cc5c4)n3)cc21 [Compound R935308]
The IC50 of the first is 4.5-fold higher: 5.7 µM for the first, 1.27 µM for the second.

Compared with CC(=O)Nc1cccc(N(C(C)=O)c2nc(N(C(C)=O)c3cccc(N(C(C)=O)C(C)=O)c3)ncc2F)c1 [Compound R950246], C=CCNC(=O)Oc1cccc(Nc2nc(Nc3cccc(OCC(=O)NC)c3)ncc2F)c1 [Compound R926917] is lower in IC50: over 10 µM for the first, 4.74 µM for the second.

Compared with O=C(CNc1cccc(Nc2ncc(F)c(Nc3cccc(NCCO)c3)n2)c1)NCCNCc1ccccc1 [Compound R950235], OCCNc1cccc(Nc2ncc(F)c(Nc3cccc(NCCO)c3)n2)c1 [Compound R950181] is 2.3-fold lower in IC50: 6.26 µM for the first, 2.69 µM for the second.

Compared with O=C(CNc1cccc(Nc2ncc(F)c(Nc3cccc(O)c3)n2)c1)N1CCNCC1 [Compound R950222], O=C(c1cccc(Nc2ncc(F)c(Nc3ccc4cc[nH]c4c3)n2)c1)N1CCOCC1 [Compound R926934] is 3-fold higher in IC50: 2.01 µM for the first, 6.01 µM for the second.

Going from CNC(=O)COc1cccc(Nc2ncc(F)c(Nc3cccc(SC(F)(F)F)c3)n2)c1 [Compound R926925] to CNC(=O)COc1cccc(Nc2ncc(F)c(Nc3ccc4[nH]ncc4c3)n2)c1 [Compound R935279], the IC50 falls from 5.87 µM to 1.98 µM (3-fold).

Compared with CNC(=O)COc1cccc(Nc2ncc(F)c(Nc3ccc4c(c3)OCCN4C)n2)c1 [Compound R908705], CNC(=O)COc1cccc(Nc2ncc(F)c(Nc3ccc4c(c3)C(N)CCO4)n2)c1 (stereo not shown) [Compound R950368] is 47-fold lower in IC50: 5.88 µM for the first, 0.125 µM for the second.

CC(C)Oc1cccc(Nc2nc(Nc3ccc4oc(C(=O)N5CCOCC5)cc4c3)ncc2F)c1 [Compound R926489] and CNC(=O)COc1cccc(Nc2ncc(F)c(Nc3ccc4c(c3)CNCC4)n2)c1 [Compound R926914] cannot be ordered by IC50: over 10 µM for the first, over 10 µM for the second.

CCOC(=O)CNc1nc(Nc2ccc(OCC(=O)OCC)cc2)nc(C(=O)OCC)c1[N+](=O)[O-] [Compound R925858] and CCOC(=O)COc1ccc(Nc2ncc(-c3nn[nH]n3)c(Nc3ccc(OCC(=O)OCC)cc3)n2)cc1 [Compound R925810] cannot be ordered by IC50: over 10 µM for the first, 21.3 µM for the second.

Compared with CCOC(=O)COc1cccc(Nc2ncc(F)c(Nc3ccc4c(c3)C(=O)OC4)n2)c1 [Compound R940285], CNC(=O)COc1cccc(Nc2ncc(F)c(Nc3ccc(OC)c(O)c3)n2)c1 [Compound R926834] is lower in IC50: over 10 µM for the first, 2.57 µM for the second. The second is the more potent here.

Going from CCOC(=O)COc1ccc(Nc2ncc(F)c(Nc3ccc4c(c3)OCCO4)n2)cn1 [Compound R926740] to Fc1cnc(Nc2ccc3c(c2)OCCO3)nc1Nc1ccc2cn[nH]c2c1 [Compound R935261], the IC50 falls from over 10 µM to 2.18 µM.

Compared with O=C(CNc1cccc(Nc2ncc(F)c(Nc3ccc4c(c3)OCCO4)n2)c1)NCCN1CCOCC1 [Compound R950200], CNc1ncc(F)c(Nc2ccc3c(c2)OCCO3)n1 [Compound R950189] is 9.7-fold higher in IC50: 2.26 µM for the first, 22 µM for the second. The first is the more potent here.

In the case of CNC(=O)COc1cccc(Nc2ncc(F)c(Nc3cc(C)ccc3Cl)n2)c1 [Compound R926840], the IC50 is reported as 12.2 µM.

Same assay, conditions: Homo sapiens

Going from O=[N+]([O-])c1cc(Nc2ccnc(Nc3ccc(Cl)c([N+](=O)[O-])c3)n2)ccc1Cl [Compound R950154] to Fc1cnc(Nc2ccc3cc[nH]c3c2)nc1Nc1ccc2cc[nH]c2c1 [Compound R926594], the IC50 falls from over 10 µM to 1.25 µM. The second is the more potent here.

Same assay, conditions: Homo sapiens, Jurkat

OCc1cccc(Nc2nc(Nc3ccc4c(c3)OCCO4)ncc2F)c1 [Compound R925758] and Fc1cccc(Nc2ncc(F)c(Nc3ccc4c(c3)OCCO4)n2)c1 [Compound R926221] cannot be ordered by IC50: 18.2 µM for the first, over 10 µM for the second.

COc1cc(Nc2ncc(F)c(Nc3ccc(C(=O)O)c(OC)c3)n2)ccc1C(=O)O [Compound R945068] and COC(=O)c1ccc(Nc2ncc(F)c(Nc3ccc(C(=O)OC)c(O)c3)n2)cc1O [Compound R945056] cannot be ordered by IC50: over 10 µM for the first, over 10 µM for the second.

COC(=O)Cc1ccc(Nc2ncc(F)c(Nc3ccc(CC(=O)OC)cc3)n2)cc1 [Compound R926605] and O=C(O)c1ccc(Nc2ncc(F)c(Nc3ccc(C(=O)O)cc3)n2)cc1 [Compound R945037] cannot be ordered by IC50: over 10 µM for the first, over 10 µM for the second.

Going from OCC(O)COc1ccc(Nc2ncc(F)c(Nc3cccc(O)c3)n2)cc1 (stereo not shown) [Compound R935180] to Nc1cccc(Nc2nc(Nc3cccc(O)c3)ncc2F)c1 [Compound R950163], the IC50 rises from 3.57 µM to 24.1 µM (6.8-fold).

Compared with Nc1cc(Nc2ncc(F)c(Nc3cc(N)cc(C(F)(F)F)c3)n2)cc(C(F)(F)F)c1 [Compound R950140], Oc1ccc(Nc2ncc(F)c(Nc3ccc(O)c(C(F)(F)F)c3)n2)cc1C(F)(F)F [Compound R950093] is 2-fold lower in IC50: 22.4 µM for the first, 11.3 µM for the second.

CCOC(=O)C1CCN(C(=O)c2cccc(Nc3nc(Nc4cccc(O)c4)ncc3F)c2)CC1 [Compound R926940] and CCOC(=O)c1cccc(Nc2ncc(F)c(Nc3cccc(C(=O)OCC)c3)n2)c1 [Compound R926228] cannot be ordered by IC50: over 10 µM for the first, over 10 µM for the second.

Fc1cnc(Nc2ccc(N3CCN(Cc4ccccc4)CC3)cc2)nc1Nc1ccc(N2CCN(Cc3ccccc3)CC2)cc1 [Compound R945152] and Fc1cnc(Nc2ccc(N3CCN(Cc4ccccc4)CC3)cc2)nc1Nc1ccc2c(c1)OCCO2 [Compound R945163] cannot be ordered by IC50: over 10 µM for the first, over 10 µM for the second.

COC(=O)C1Cc2cc(N(c3ccc(C(C)(C)C)cc3)c3ncc(F)c(N)n3)ccc2O1 (stereo not shown) [Compound R926719] and CCOC(=O)c1cc2cc(Nc3ncc(F)c(Nc4ccc(C(C)(C)C)cc4)n3)ccc2[nH]1 [Compound R926474] cannot be ordered by IC50: over 10 µM for the first, 10.8 µM for the second.

First: Oc1ccc(CCNc2ccnc(NCCc3ccc(O)cc3)n2)cc1 [Compound R925790]
Second: Oc1ccc(Nc2ncc(F)c(Nc3ccc(O)cc3)n2)cc1 [Compound R926405]
The IC50 of the first is 2.2-fold higher: 17 µM for the first, 7.62 µM for the second.

COC(=O)c1cc2cc(Nc3ncc(F)c(Nc4ccc5c(c4)OCCO5)n3)ccc2o1 [Compound R926690] and Oc1cccc(Nc2nc(NCc3ccc4c(c3)OCCO4)ncc2F)c1 [Compound R945168] cannot be ordered by IC50: 13.4 µM for the first, over 10 µM for the second.

COC(=O)c1cc(Nc2ncc(F)c(Nc3ccc(OC)c(C(=O)OC)c3)n2)ccc1OC [Compound R945066] and CCOC1CCCc2ccc(Nc3nc(Nc4cccc(O)c4)ncc3F)cc21 (stereo not shown) [Compound R926942] cannot be ordered by IC50: 43.2 µM for the first, over 10 µM for the second.

Fc1cnc(Nc2cccc(OCc3ccccc3)c2)nc1Nc1cccc(OCc2ccccc2)c1 [Compound R926394] and CCOc1ccc(Nc2ncc(F)c(Nc3ccc(OCC)cc3)n2)cc1 [Compound R070790, N2,N4-bis(4-ethoxyphenyl)-5-fluoro-2,4-pyrimidinediamine] cannot be ordered by IC50: over 10 µM for the first, over 10 µM for the second.

First: CC(Nc1nc(Nc2cccc(O)c2)ncc1F)c1ccc(F)cc1 (racemic) [Compound R935021]
Second: CC(C)Oc1ccc(Nc2nc(Nc3ccc(C(C)(C)CO)cc3)ncc2F)cc1 [Compound R935151]
The IC50 of the first is higher: over 10 µM for the first, 1.96 µM for the second.

CCOC(=O)c1nc(Nc2ccc3c(c2)OCCO3)nc(Nc2ccc3c(c2)OCCO3)c1N [Compound R925857] and CCOC(=O)c1nc(Nc2cccc(O)c2)nc(Nc2cccc(O)c2)c1N [Compound R925856] cannot be ordered by IC50: over 10 µM for the first, over 10 µM for the second.

Oc1cccc(Nc2cc(-c3ccccc3)nc(Nc3cccc(O)c3)n2)c1 [Compound R925812] and CCOc1ccc(Nc2cc(Cl)nc(Nc3ccc(OCC)cc3)n2)cc1 [Compound R926072] cannot be ordered by IC50: over 10 µM for the first, over 10 µM for the second.

O=c1ccc2cc(Nc3ncc(F)c(Nc4ccc5oc(=O)ccc5c4)n3)ccc2o1 [Compound R926617] and CC(C)Oc1ccc(Nc2ncc(F)c(Nc3ccc(OC(C)C)cc3)n2)cc1 [Compound R926701] cannot be ordered by IC50: over 10 µM for the first, over 10 µM for the second.

COc1ccc(OCCNc2ncc(F)c(Nc3ccc4c(c3)OCCO4)n2)cc1 [Compound R950204] showed an IC50 of over 10 µM.
